IC50 and pIC50 data for 27 molecules are collected here from ChEMBL document CHEMBL3098024, “Synthesis, molecular modeling and biological evaluation of N-benzylidene-2-((5-(pyridin-4-yl)-1,3,4-oxadiazol-2-yl)thio)acetohydrazide derivatives as potential anticancer agents” (Bioorg Med Chem, 2014).

The term IC50 denotes the concentration that gives 50% inhibition. Low values mean greater potency, high ones weaker potency. As a reminder, the pIC50 is the negative decadic logarithm of the IC50, by convention in mol/L. A low value points to a high IC50.

Experiment [1] relates to MCF7. In words: Cytotoxicity against human MCF7 cells after 48 hrs by MTT assay. It is filed as functional, cell-based. As to conditions: MCF7, 48 h.
In experiment [2] the test system is HepG2. In words: Cytotoxicity against human HepG2 cells after 48 hrs by MTT assay. In kind it is functional, cell-based. The note with it: HepG2, 48 h. Background: Tetrazolium dyes change colour on reduction, which living cells bring about.
Experiment [3] can be described thus: Inhibition of telomerase in human SW1116 cells after 24 hrs by TRAP-PCR-ELISA assay. In kind it is cell-based. As to conditions: sw 1116.
Experiment [4] is described as follows: Cytotoxicity against human SW1116 cells after 48 hrs by MTT assay. It is filed as functional, cell-based. The note with it: SW 1116, 48 h.
Experiment [5] has as its system NIH3T3. In words: Cytotoxicity against mouse NIH/3T3 cells after 24 hrs by MTT assay. It is filed as ADME, cell-based. As to conditions: NIH3T3, 24 h.
The nature of experiment [6]: Cytotoxicity against human BGC823 cells after 48 hrs by MTT assay. It is filed as functional, cell-based. The note with it: BGC-823, 48 h.

SMILES strings stand for the structures.

`O=C(CSc1nnc(-c2ccncc2)o1)N/N=C/c1ccccc1F`: the half-maximal inhibitory concentration (IC50) amounted to 21.8 µM in experiment [1]; 16 µM in experiment [2]; 14.6 µM in experiment [3]; 21.5 µM in experiment [4]; 142 µM in experiment [5]; 24 µM in experiment [6]. Also, the pIC50 in experiment [3] worked out at 4.84.
For the molecule `O=C(CSc1nnc(-c2ccncc2)o1)N/N=C/C=C/c1ccccc1`, the 50% inhibitory concentration (IC50) in experiment [1] was found to be 10.8 µM; in experiment [2] it was 7.42 µM; in experiment [3], 6.57 µM; in experiment [4], 14.9 µM; in experiment [5], 160 µM; in experiment [6], 10.6 µM. The pIC50 in experiment [3] is recorded as 5.18.
For the molecule `O=C(CSc1nnc(-c2ccncc2)o1)N/N=C/c1cc(Cl)ccc1O`, the half-inhibitory concentration (IC50) in experiment [1] was found to be 5.83 µM; in experiment [2], 3.97 µM; in experiment [3], 3.13 µM; in experiment [4], 5.24 µM; in experiment [5], 166 µM; in experiment [6] it was 5.47 µM. The molecule also registered a pIC50 in experiment [3] of 5.5.
On to `O=C(CSc1nnc(-c2ccncc2)o1)N/N=C/c1cccc(C(F)(F)F)c1`, for which the half-maximal inhibitory concentration (IC50) in experiment [1] worked out at 14.6 µM; in experiment [2], 6.52 µM; in experiment [3] it was 5.18 µM; in experiment [4], 14.9 µM; in experiment [5] it was 169 µM; in experiment [6], 13 µM. Moreover, the negative-log IC50 (pIC50) in experiment [3] is 5.29.
`O=C(CSc1nnc(-c2ccncc2)o1)N/N=C/c1ccccc1[N+](=O)[O-]`: the 50% inhibitory concentration (IC50) worked out at 35.6 µM in experiment [1]; 24.7 µM in experiment [2]; 18.2 µM in experiment [3]; 30.7 µM in experiment [4]; 214 µM in experiment [5]; 41.6 µM in experiment [6]. Also, in experiment [3], the negative logarithm of the IC50 (pIC50) came out at 4.74.
As for `O=C(CSc1nnc(-c2ccncc2)o1)N/N=C/c1ccc([N+](=O)[O-])cc1`, the IC50 is 31.8 µM in experiment [1]; 17.9 µM in experiment [2]; 16.7 µM in experiment [3]; 25.8 µM in experiment [4]; 195 µM in experiment [5]; 31.5 µM in experiment [6]. Moreover, the pIC50 in experiment [3] stood at 4.78.
With `COc1cc(/C=N/NC(=O)CSc2nnc(-c3ccncc3)o2)ccc1O`, the half-maximal inhibitory concentration (IC50) in experiment [1] stood at 3.78 µM; in experiment [2], 2.92 µM; in experiment [3], 2.89 µM; in experiment [4], 3.59 µM; in experiment [5] it was 148 µM; in experiment [6] it was 4.32 µM. This molecule came in with a negative logarithm of the IC50 (pIC50) in experiment [3] of 5.54.
Turning to `O=C(CSc1nnc(-c2ccncc2)o1)N/N=C/c1ccc(Cl)cc1Cl`, the IC50 in experiment [1] is 27.9 µM; in experiment [2], 18.6 µM; in experiment [3], 17.8 µM; in experiment [4] it was 28.9 µM; in experiment [5], 221 µM; in experiment [6], 35.6 µM. This molecule also registered a negative logarithm of the IC50 (pIC50) in experiment [3] of 4.75.
`COc1cccc(/C=N/NC(=O)CSc2nnc(-c3ccncc3)o2)c1`: the concentration for half-maximal inhibition (IC50) in experiment [1] came to 13.8 µM; in experiment [2], 9.17 µM; in experiment [3], 7.54 µM; in experiment [4], 16.5 µM; in experiment [5] it was 179 µM; in experiment [6], 15.8 µM. The molecule also gave a pIC50 in experiment [3] of 5.12.
As to `O=C(CSc1nnc(-c2ccncc2)o1)N/N=C/c1ccc(O)c(O)c1`, the IC50 in experiment [1] was found to be 0.91 µM; in experiment [2], 0.76 µM; in experiment [3] it was 1.18 µM; in experiment [4], 1.54 µM; in experiment [5] it was 154 µM; in experiment [6], 1.26 µM. Also, the negative-log IC50 (pIC50) in experiment [3] was found to be 5.93.
In the case of `O=C(CSc1nnc(-c2ccncc2)o1)N/N=C/c1ccc(Cl)cc1`, the half-maximal inhibitory concentration (IC50) is 15.3 µM in experiment [1]; 15.7 µM in experiment [2]; 11.9 µM in experiment [3]; 17 µM in experiment [4]; 181 µM in experiment [5]; 20.5 µM in experiment [6]. Moreover, the negative-log IC50 (pIC50) in experiment [3] amounted to 4.93.
For the molecule `O=C(CSc1nnc(-c2ccncc2)o1)N/N=C/c1ccccc1`, the half-maximal inhibitory concentration (IC50) in experiment [1] is 14.6 µM; in experiment [2] it was 17.3 µM; in experiment [3], 9.72 µM; in experiment [4], 16.7 µM; in experiment [5], 167 µM; in experiment [6], 22.1 µM. In experiment [3], this molecule displayed a pIC50 of 5.01.
On to `CC[n+]1c(-c2ccccc2)c2cc(N)ccc2c2ccc(N)cc21` [HOMIDIUM BROMIDE], for which the 50% inhibitory concentration (IC50) in experiment [3] worked out at 2.71 µM; in experiment [5] it was 135 µM.
As to `O=C(CSc1nnc(-c2ccncc2)o1)N/N=C/c1ccccc1O`, the IC50 worked out at 4.75 µM in experiment [1]; 3.51 µM in experiment [2]; 3.97 µM in experiment [3]; 7.38 µM in experiment [4]; 155 µM in experiment [5]; 6.16 µM in experiment [6]. The molecule further registered a pIC50 in experiment [3] of 5.4.
For the molecule `O=C(CSc1nnc(-c2ccncc2)o1)N/N=C/c1ccc(O)cc1`, the IC50 in experiment [1] is 11.7 µM; in experiment [2], 5.51 µM; in experiment [3], 5.36 µM; in experiment [4], 12.2 µM; in experiment [5] it was 158 µM; in experiment [6], 7.94 µM. In experiment [3], the negative-log IC50 (pIC50) amounted to 5.27.
In the case of `COc1ccc(/C=N/NC(=O)CSc2nnc(-c3ccncc3)o2)cc1`, the half-inhibitory concentration (IC50) in experiment [1] is 17.6 µM; in experiment [2] it was 15.8 µM; in experiment [3], 9.04 µM; in experiment [4], 20.3 µM; in experiment [5], 132 µM; in experiment [6] it was 19.8 µM. Besides, in experiment [3], the pIC50 amounted to 5.04.
Consider `O=C(CSc1nnc(-c2ccncc2)o1)N/N=C/c1ccc(Br)cc1`, for which the IC50 in experiment [1] came out at 19.1 µM; in experiment [2], 18.6 µM; in experiment [3], 12.4 µM; in experiment [4], 21.3 µM; in experiment [5] it was 169 µM; in experiment [6], 24.5 µM. Also, the negative-log IC50 (pIC50) in experiment [3] stood at 4.91.
With `O=C(CSc1nnc(-c2ccncc2)o1)N/N=C/c1cc(Cl)cc(Cl)c1O`, the half-maximal inhibitory concentration (IC50) in experiment [1] amounted to 5.92 µM; in experiment [2] it was 3.26 µM; in experiment [3], 4.8 µM; in experiment [4], 5.03 µM; in experiment [5] it was 171 µM; in experiment [6], 6.34 µM. The molecule also showed a negative logarithm of the IC50 (pIC50) in experiment [3] of 5.32.
As for `O=C(CSc1nnc(-c2ccncc2)o1)N/N=C/c1cc(Br)cc(Br)c1O`, the half-maximal inhibitory concentration (IC50) in experiment [1] worked out at 9.01 µM; in experiment [2] it was 6.54 µM; in experiment [3] it was 7.12 µM; in experiment [4], 8.57 µM; in experiment [5] it was 190 µM; in experiment [6] it was 9.61 µM. The pIC50 in experiment [3] amounted to 5.15.
Turning to `O=C(CSc1nnc(-c2ccncc2)o1)N/N=C/c1cccc(F)c1`, the half-inhibitory concentration (IC50) in experiment [1] stood at 24.9 µM; in experiment [2], 19.4 µM; in experiment [3], 15.7 µM; in experiment [4] it was 26.7 µM; in experiment [5], 205 µM; in experiment [6] it was 27.5 µM. Further, the negative logarithm of the IC50 (pIC50) in experiment [3] is 4.8.
For the molecule `Cc1ccc(/C=N/NC(=O)CSc2nnc(-c3ccncc3)o2)cc1`, the IC50 in experiment [1] was 14.7 µM; in experiment [2] it was 10 µM; in experiment [3], 8.51 µM; in experiment [4], 16.8 µM; in experiment [5], 185 µM; in experiment [6] it was 21.8 µM. In experiment [3], this molecule gave a negative logarithm of the IC50 (pIC50) of 5.07.
With `NNC(=O)CSc1nnc(-c2ccncc2)o1`, the half-inhibitory concentration (IC50) in experiment [1], in experiment [2], in experiment [4] and in experiment [6] was 3.26 µM in each case.
On to `O=C(CSc1nnc(-c2ccncc2)o1)N/N=C/c1ccc(F)cc1`, for which the concentration for half-maximal inhibition (IC50) in experiment [1] is 13.5 µM; in experiment [2], 12.3 µM; in experiment [3], 10.2 µM; in experiment [4], 15.7 µM; in experiment [5], 170 µM; in experiment [6] it was 17.8 µM. This molecule also returned a negative logarithm of the IC50 (pIC50) in experiment [3] of 4.99.
Consider `O=C(CSc1nnc(-c2ccncc2)o1)N/N=C/c1ccco1`, for which the IC50 in experiment [1] was 16.6 µM; in experiment [2], 12.5 µM; in experiment [3], 9.63 µM; in experiment [4], 18.8 µM; in experiment [5], 175 µM; in experiment [6], 25.8 µM. This molecule also came in with a negative-log IC50 (pIC50) in experiment [3] of 5.02.
On to `O=C(CSc1nnc(-c2ccncc2)o1)N/N=C/c1cccs1`, for which the IC50 in experiment [1] stood at 23.5 µM; in experiment [2], 14.9 µM; in experiment [3], 13.5 µM; in experiment [4], 24.9 µM; in experiment [5], 189 µM; in experiment [6], 26.7 µM. For the same molecule, the pIC50 in experiment [3] was found to be 4.87.
Consider `O=C(CSc1nnc(-c2ccncc2)o1)N/N=C/c1cc(Br)ccc1O`, for which the IC50 in experiment [1] amounted to 7.77 µM; in experiment [2], 6.49 µM; in experiment [3], 4.28 µM; in experiment [4], 8.15 µM; in experiment [5], 156 µM; in experiment [6], 9.59 µM. This molecule had a negative-log IC50 (pIC50) in experiment [3] of 5.37.
As for `O=c1[nH]cc(F)c(=O)[nH]1` [FLUOROURACIL], the IC50 was 9.79 µM in experiment [1], 7.43 µM in experiment [2], 5.26 µM in experiment [4] and 7.48 µM in experiment [6].
